Results from patent US20090149420A1, “NOVEL COMPOSITIONS AND USE THEREOF FOR THE TREATMENT, CO-TREATMENT OR PREVENTION OF INFLAMMATORY DISORDERS” (priority 2007, published 2009).

What was measured:
Format in all cases: cell-based
MMP-2 = MMP-2 gene expression (mRNA, RT-PCR) in normal human chondrocytes; conditions: 500 mg/L; 4 d; % of IL1β-treated cells set at 100%
Description: (§1) The effect of a MA/HO (1:3 w/w) mixture in combination with chondroitin was tested on the expression of human aggrecan, collage I, collagen II, or chondrocyte transcription factors (SOX-6, -9) in vitro in normal human chondrocytes (derived from knee) (CC-2550; Cambrex, respectively). A control experiment without the compounds was done concomitantly to compare the expression of these genes (percentage expression of gene in controls was set to 100%). […] The level of mRNA was determined by RT-PCR (Richard et al. Mol. Nutr. Food Res. 49, 431-442, 2005) and expressed relative to the level observed in cells cultured without the substances. The given values indicate the level of gene expression (in % of unstimulated cells [set at 100%] for anabolic and anti-catabolic genes; in % of IL1β-treated cells [set at 100%], for catabolic genes).

TIMP-1 = TIMP-1 gene expression (mRNA, RT-PCR) in normal human chondrocytes; conditions: 500 mg/L; unstim., 4 d; % of unstimulated cells set at 100%
Description: as §1

ADAMTS-5 = ADAMTS-5 gene expression (mRNA, RT-PCR) in normal human chondrocytes; conditions: 500 mg/L; stim, 4 hrs; % of IL1β-treated cells set at 100%
Description: (§2) The effect of a MA/HO (1:3 w/w) mixture in combination with chondroitin was tested on the expression of human aggrecan, collage I, collagen II, or chondrocyte transcription factors (SOX-6, -9) in vitro in normal human chondrocytes (derived from knee) (CC-2550; Cambrex, respectively). A control experiment without the compounds was done concomitantly to compare the expression of these genes (percentage expression of gene in controls was set to 100%). Normal human chondrocytes were cultured for 4 hours with MA/HO (1:3 w/w) (at 12.5 μmol/L), chondroitin (at 500 mg/L) as well as with both. The level of mRNA was determined by RT-PCR (Richard et al. Mol. Nutr. Food Res. 49, 431-442, 2005) and expressed relative to the level observed in cells cultured without the substances. The given values indicate the level of gene expression (in % of unstimulated cells [set at 100%] for anabolic and anti-catabolic genes; in % of IL1β-treated cells [set at 100%], for catabolic genes).

Aggrecan = Aggrecan gene expression (mRNA, RT-PCR) in normal human chondrocytes; conditions: 500 mg/L; stim., 4 hrs; control set at 100%
Description: as §2

SOX-9 = SOX-9 gene expression (mRNA, RT-PCR) in normal human chondrocytes; conditions: 500 mg/L; % of unstimulated cells set at 100%
Description: as §2

[1] = test system: murine macrophage cell line, RAW264.7; assay: Inhibition of nitric oxide synthesis in LPS-stimulated RAW264.7 macrophages (Griess reaction); conditions: single substance
Description: The anti-inflammatory effect of a mixture of MA/HO (1:3 w/w) in combination with chondroitin sulfate was determined in cellular assays by measuring the inhibition of the synthesis of nitric oxide. Nitric oxide (NO) is a hallmark of inflammation in various chronic inflammatory diseases including various forms of arthritis, gastro-intestinal diseases and metabolic syndrome X.
The effects on the inflammatory response were tested in cellular assays using a murine macrophage cell line, RAW264.7. The cells were purchased from ATCC (Manassas, Va., USA) and cultured in DMEM containing streptomycin/penicillin, non-essential amino acids and 10% fetal calf serum (FCS). In order to test a large range of concentration of a mixture of MA and HO (1:3) as well as mixtures thereof, cells (˜50,000/well) were seeded into flat-bottomed microtiter plates and cultured for one day. […] Concentrations of nitrite which was rapidly formed from nitric oxide released by cells were determined by the Griess reaction using sodium nitrite as standard. Briefly, 50 μl of supernatant was mixed with Griess reagent 1 (25 μL) and Griess reagent 2 (25 μL), centrifuged and the optical density at 540 nm determined. […] IC50 values for LPS-stimulated cells were calculated using a […] least-square fitting equation [y=A+((B−A)/(1+((C−x)̂D))] for best-fit curves (Excel fit software program). […]

chondroitin sulfate
MMP-2 gene expression level (MMP-2): 93% | TIMP-1 gene expression level (TIMP-1): 106% | ADAMTS-5 gene expression level (ADAMTS-5): 107% | Aggrecan gene expression level (Aggrecan): 62% | SOX-9 gene expression level (SOX-9): 147% | IC50 Nitric Oxide ([1]; RAW264.7, LPS 1 μg/ml, 24 hours): >50 µg/mL | anti-inflammatory activity (inhibition of nitric oxide), in words ([1]; RAW264.7, LPS-stimulated): marginal anti-inflammatory
